Results: ChEMBL document CHEMBL1201862, “PubChem BioAssay data set” (2004)
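Five compound concentrations were applied to cells in 96-well plates for 48 hours; endpoints were derived by simple linear interpolation of the resulting dose-response curve. GI50 marks 50% less growth.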 Active and inactive are the calls of the source. No stated cut-off is given here; in the data, active = GI50 up to about 1.1 µM and inactive = higher.

Columns and labels:
Assay in all cases: inhibition of tumour cell growth, NCI panel, 48 h
786-0 = system: 786-0
ACHN = system: ACHN
CCRF-CEM = system: CCRF-CEM
COLO 205 = system: COLO 205
HL-60 = system: HL-60
Malme-3M = system: Malme-3M
NCI-H23 = system: NCI-H23
RPMI-8226 = system: RPMI-8226
RXF 393 = system: RXF 393
SF-268 = system: SF-268
SF-539 = system: SF-539
SNB-19 = system: SNB-19
SNB-75 = system: SNB-75
TK-10 = system: TK-10
UO-31 = system: UO-31
OVCAR-4 = system: OVCAR-4

Row | Structure (SMILES) | GI50 (786-0) | GI50 (ACHN) | GI50 (CCRF-CEM) | GI50 (COLO 205) | GI50 (HL-60) | GI50 (Malme-3M) | GI50 (NCI-H23) | GI50 (RPMI-8226) | GI50 (RXF 393) | GI50 (SF-268) | GI50 (SF-539) | GI50 (SNB-19) | GI50 (SNB-75) | GI50 (TK-10) | GI50 (UO-31) | GI50 (OVCAR-4)
1 | CNS(=O)(=O)NNS(=O)(=O)c1ccccc1 | > 100 µM (inactive) | > 100 µM (inactive) | > 100 µM (inactive) | > 100 µM (inactive) | > 100 µM (inactive) | > 100 µM (inactive) | > 100 µM (inactive) | > 100 µM (inactive) | > 100 µM (inactive) | > 100 µM (inactive) | > 100 µM (inactive) | > 100 µM (inactive) | > 100 µM (inactive) | > 100 µM (inactive) | > 100 µM (inactive) | –
2 | Cc1nc2c(s/c(=N\N)n2-c2ccccc2)c(=O)n1C | > 100 µM (inactive) | > 100 µM (inactive) | > 100 µM (inactive) | > 100 µM (inactive) | > 100 µM (inactive) | – | > 100 µM (inactive) | > 100 µM (inactive) | > 100 µM (inactive) | > 100 µM (inactive) | > 100 µM (inactive) | > 100 µM (inactive) | > 100 µM (inactive) | > 100 µM (inactive) | > 100 µM (inactive) | > 100 µM (inactive)
3 | C/C=C1\CN2CCc3c([nH]c4ccccc34)C2C=C1CCO (stereo not drawn) | > 340 µM (inactive) | > 340 µM (inactive) | > 340 µM (inactive) | > 340 µM (inactive) | > 340 µM (inactive) | > 340 µM (inactive) | > 340 µM (inactive) | > 340 µM (inactive) | > 340 µM (inactive) | > 340 µM (inactive) | > 340 µM (inactive) | > 340 µM (inactive) | – | > 340 µM (inactive) | – | –
4 | Cc1ccc(C)c(N2C(=O)C(=O)C(c3nc4ccccc4s3)/C(=N\c3cccc4c(=O)[nH][nH]c(=O)c34)C2=O)c1 (stereo not drawn) | > 100 µM (inactive) | > 100 µM (inactive) | > 100 µM (inactive) | 38.2 µM (inactive) | > 100 µM (inactive) | > 100 µM (inactive) | > 100 µM (inactive) | > 100 µM (inactive) | – | > 100 µM (inactive) | 91.8 µM (inactive) | > 100 µM (inactive) | 97.9 µM (inactive) | > 100 µM (inactive) | > 100 µM (inactive) | 88.5 µM (inactive)
5 | Cc1ccc(NC(=O)COC(=O)c2cccc3c(=O)c4ccccc4[nH]c23)cc1 | 28.4 µM (inactive) | 27 µM (inactive) | – | 21.9 µM (inactive) | 38.3 µM (inactive) | 47 µM (inactive) | 17.8 µM (inactive) | 87.7 µM (inactive) | 22.8 µM (inactive) | 35.6 µM (inactive) | 22.9 µM (inactive) | 40.6 µM (inactive) | 31.3 µM (inactive) | 22 µM (inactive) | 5.35 µM (inactive) | 48.3 µM (inactive)
6 | O=C(OCCOCCOC(=O)c1c[nH]cc1-c1ccccc1)c1c[nH]cc1-c1ccccc1 | 25.9 µM (inactive) | – | 23 µM (inactive) | 19.8 µM (inactive) | 17.9 µM (inactive) | 18.9 µM (inactive) | 17.1 µM (inactive) | 15 µM (inactive) | 15.4 µM (inactive) | 15.5 µM (inactive) | 17.9 µM (inactive) | 24.3 µM (inactive) | 17.2 µM (inactive) | 30.3 µM (inactive) | 14.1 µM (inactive) | 18.3 µM (inactive)
7 | COC1OC(COS(=O)(=O)c2ccc(C)cc2)C(O)C(OS(=O)(=O)c2ccc(C)cc2)C1OS(=O)(=O)c1ccc(C)cc1 (stereo not drawn) | > 100 µM (inactive) | > 100 µM (inactive) | > 100 µM (inactive) | > 100 µM (inactive) | > 100 µM (inactive) | > 100 µM (inactive) | > 100 µM (inactive) | > 100 µM (inactive) | > 100 µM (inactive) | > 100 µM (inactive) | > 100 µM (inactive) | > 100 µM (inactive) | 95.9 µM (inactive) | – | > 100 µM (inactive) | > 100 µM (inactive)
8 | C=C1C(C)C2C(Cc3ccccc3)NC(=O)C23OC(=O)/C=C\CC(=O)CCC(C)C/C=C/C3C1O (stereo not drawn) | 0.438 µM (active) | – | – | 1.34 µM (inactive) | – | 1.82 µM (inactive) | 3.1 µM (inactive) | – | 0.43 µM (active) | 1.66 µM (inactive) | – | 2.6 µM (inactive) | 0.413 µM (active) | 0.0834 µM (active) | 0.512 µM (active) | 2.31 µM (inactive)
9 | CC1(C(=O)NCCN(CCNC(=O)C2(C)CC3(C)CC(C)(C2)C(=O)NC3=O)CCNC(=O)C2(C)CC3(C)CC(C)(C2)C(=O)NC3=O)CC2(C)CC(C)(C1)C(=O)NC2=O (stereo not drawn) | > 100 µM (inactive) | > 100 µM (inactive) | > 100 µM (inactive) | > 100 µM (inactive) | > 100 µM (inactive) | – | > 100 µM (inactive) | > 100 µM (inactive) | > 100 µM (inactive) | – | > 100 µM (inactive) | > 100 µM (inactive) | > 100 µM (inactive) | – | > 100 µM (inactive) | > 100 µM (inactive)
10 | N#CNc1nc(N)c(-c2ccc(Cl)cc2)c(C(=O)Nc2nccs2)n1 | > 100 µM (inactive) | > 100 µM (inactive) | – | – | > 100 µM (inactive) | > 100 µM (inactive) | > 100 µM (inactive) | > 100 µM (inactive) | > 100 µM (inactive) | > 100 µM (inactive) | > 100 µM (inactive) | > 100 µM (inactive) | > 100 µM (inactive) | > 100 µM (inactive) | > 100 µM (inactive) | > 100 µM (inactive)
11 | Cc1nn(C(=O)CC(=O)Nc2ccc(Cl)cc2)c(C)c1/N=N/c1ccccc1C(=O)O | > 100 µM (inactive) | – | > 100 µM (inactive) | > 100 µM (inactive) | > 100 µM (inactive) | > 100 µM (inactive) | > 100 µM (inactive) | > 100 µM (inactive) | – | > 100 µM (inactive) | > 100 µM (inactive) | > 100 µM (inactive) | 39.5 µM (inactive) | > 100 µM (inactive) | > 100 µM (inactive) | > 100 µM (inactive)
12 | Nc1nc(N)c(-c2ccc(Cl)cc2)c(CCC(=O)Nc2cccc(C(F)(F)F)c2)n1 | > 100 µM (inactive) | > 100 µM (inactive) | > 100 µM (inactive) | > 100 µM (inactive) | > 100 µM (inactive) | > 100 µM (inactive) | > 100 µM (inactive) | – | > 100 µM (inactive) | > 100 µM (inactive) | > 100 µM (inactive) | > 100 µM (inactive) | > 100 µM (inactive) | > 100 µM (inactive) | > 100 µM (inactive) | > 100 µM (inactive)
13 | CCO/C([O-])=C(\C(=O)c1ccccc1)[n+]1c(C)n(C)c2ccccc21 | > 100 µM (inactive) | – | > 100 µM (inactive) | > 100 µM (inactive) | > 100 µM (inactive) | > 100 µM (inactive) | > 100 µM (inactive) | > 100 µM (inactive) | > 100 µM (inactive) | > 100 µM (inactive) | > 100 µM (inactive) | > 100 µM (inactive) | > 100 µM (inactive) | > 100 µM (inactive) | > 100 µM (inactive) | > 100 µM (inactive)
14 | CC(=O)n1c2ccccc2c2nc3nc(Oc4ccc(C)cc4)c4ccccc4c3cc21 | 65.8 µM (inactive) | > 100 µM (inactive) | > 100 µM (inactive) | > 100 µM (inactive) | – | > 100 µM (inactive) | 21.8 µM (inactive) | > 100 µM (inactive) | – | 92.3 µM (inactive) | > 100 µM (inactive) | 92 µM (inactive) | 44.2 µM (inactive) | – | > 100 µM (inactive) | 29.4 µM (inactive)
15 | COC(=O)/C(=N\NC(C)(C)C)C(C(=O)OC)C(=O)C(=O)Nc1cc(Cl)ccc1Cl (stereo not drawn) | > 100 µM (inactive) | > 100 µM (inactive) | > 100 µM (inactive) | > 100 µM (inactive) | > 100 µM (inactive) | > 100 µM (inactive) | > 100 µM (inactive) | – | > 100 µM (inactive) | > 100 µM (inactive) | > 100 µM (inactive) | > 100 µM (inactive) | > 100 µM (inactive) | > 100 µM (inactive) | > 100 µM (inactive) | > 100 µM (inactive)
16 | CCCCNC(=O)CCN(C(=O)O)S(=O)(=O)c1ccc(NC(=O)c2ccccc2)cc1 | 11.9 µM (inactive) | > 100 µM (inactive) | > 100 µM (inactive) | 64.3 µM (inactive) | > 100 µM (inactive) | > 100 µM (inactive) | > 100 µM (inactive) | > 100 µM (inactive) | – | > 100 µM (inactive) | > 100 µM (inactive) | > 100 µM (inactive) | > 100 µM (inactive) | > 100 µM (inactive) | > 100 µM (inactive) | > 100 µM (inactive)
17 | C1C[N+]23CCC[N+]2(C1)CCC3 (stereo not drawn) | > 100 µM (inactive) | > 100 µM (inactive) | 31.6 µM (inactive) | > 100 µM (inactive) | 31.1 µM (inactive) | > 100 µM (inactive) | > 100 µM (inactive) | – | > 100 µM (inactive) | > 100 µM (inactive) | > 100 µM (inactive) | > 100 µM (inactive) | 97.5 µM (inactive) | > 100 µM (inactive) | 99.8 µM (inactive) | > 100 µM (inactive)
18 | O=C1CCC2(c3ccc(Cl)cc3)Nc3cc(Cl)ccc3N12 (stereo not drawn) | 10.2 µM (inactive) | 10.4 µM (inactive) | 2.42 µM (inactive) | 4.7 µM (inactive) | 1.15 µM (inactive) | 10.7 µM (inactive) | 10.9 µM (inactive) | 16.4 µM (inactive) | 11.9 µM (inactive) | 12.4 µM (inactive) | 2.3 µM (inactive) | 16.4 µM (inactive) | 12.2 µM (inactive) | – | 15.6 µM (inactive) | 10.6 µM (inactive)
